Legend:
[1] = test system: PC3 cells xenografted together with PSC27 cells; test: PC3/PSC27 xenograft, tumor end volume after chemotherapy and/or PDK4-IN; assay type: in vivo, SCID mice; settings: MIT alone, 0.2 mg/kg i.p., first day of weeks 3, 5, 7; end of 8-week regimen
Experimental: All experimental mouse experiments were carried out in strict accordance with the relevant regulations of the Institutional Animal Care and Use Committee (IACUC), Shanghai Institutes for Biological Sciences, Chinese Academy of Sciences. Immuno-deficient mice ICR SCID mice (body weight about 25 g) aged about 6 weeks were used for animal experiments related to the present disclosure. Stromal cells PSC27 and epithelial cells were mixed at a ratio of 1:4, and each graft contained 1.25×10^6 cells for tissue remodeling. The xenograft tumors were implanted into mice by subcutaneous transplantation, and the animals were euthanized 8 weeks after the end of the transplantation surgery. […] For pre-clinical chemotherapeutic studies, mice received subcutaneous implantation were given standard laboratory diets. […] The time points were on the first day of the third, fifth and seventh weeks, with a total of 3 cycles of treatment, and each cycle lasted for 2 weeks. After the course of treatment, mouse […] were collected for tumor measurement and histological analysis. […] The chemotherapy experiment ended at the end of the 8th week, and the mice were dissected immediately after sacrifice, and the xenograft tumors were collected and used for pathological system analysis. To closely mimic clinical conditions involving chemotherapeutic drugs, the inventors designed a preclinical regimen incorporating a genotoxic drug (MIT) and/or the PDK4 inhibitor (PDK4-IN) (FIG. 63).

PC3 = test: MIT-based viability assay of PC3; assay type: cell-based, human; settings: PC3, range of concentrations of MIT
Experimental: FIG. 61. Dose-response curves (non-linear regression/curve fit) plotted from MIT-based viability assays of PC3 exposed to the CM of PSC27-PDK4 cells and treated by a range of concentrations of MIT.
(§1) After PSC27 cells were cultured in DMEM+0.5% FBS medium for 3 days, then the cell population was washed thoroughly with 1×PBS. After a simple centrifugation, the supernatant was collected as conditioned medium, stored at −80° C. or used directly. Prostate epithelial cells are subjected to in vitro experiments during continuous culture in this conditioned medium for 3 days. For chemotherapy resistance, epithelial cell lines were cultured either in low-serum DMEM (0.5% FBS) (referred to as “DMEM”) or in conditioned medium. Simultaneously, mitoxantrone (MIT) was used to treat cells for 1 to 3 days at concentrations close to the IC50 values for each cell line, followed by observation under a bright-field microscope.

[2] = test system: tumor tissues of mice (PC3/PSC27 xenografts); test: In vivo cellular senescence and SASP expression in xenograft tumors (LCM transcripts, SA-β-Gal staining); design: species or system SCID mice; settings: histological staining, FIG. 68
Source text: (§2) FIG. 66. Transcript assessment of several canonical SASP factors expressed in stromal cells isolated from tumors in SCID mice. LCM isolation, total RNA preparation and expression assays on tissues from animals with simultaneously implanted stromal cells and cancer cells. Note that the group measured as of the lowest value was used as normalization baseline per factor.
as §2, with “67.” for “66.”, “individual” for “several”, “factors (AREG), aging markers (p16/p21) and PDK4” for “factors”
FIG. 68. Representative IHC images of SA-β-Gal staining chromatograms from tissues isolated from animals subjected to placebo or drug treatments. Scale bar, 100 μm. Right, Comparative statistical analysis of SA-β-Gal staining for tissues in mice mentioned above.
Senescence-associated β-galactosidase (SA-β-Gal) staining was performed following a previously reported procedure (Debacq-Chainiaux et al., 2009). Briefly, cells in culture dishes were washed with PBS and fixed at room temperature. Cells were fixed in 2% formaldehyde and 0.2% glutaraldehyde for 3 minutes. SA-β-Gal was used for staining with freshly prepared staining solution overnight at 37° C. Images were taken on the next day and the percentage of positive cells per unit area was calculated.
For pre-clinical chemotherapeutic studies, mice received subcutaneous implantation were given standard laboratory diets. […] The time points were on the first day of the third, fifth and seventh weeks, with a total of 3 cycles of treatment, and each cycle lasted for 2 weeks. After the course of treatment, mouse […] were collected for tumor measurement and histological analysis. […]

[3] = test system: cancer cells in tumors (PC3/PSC27 xenografts); test: DNA damage and apoptosis in tumors by IHC (γ-H2AX, cleaved caspase 3); assay type: in vivo, SCID mice
Source text: FIG. 69. Statistical evaluating values of DNA-damaged cells and apoptotic cells in analyzed tumor specimens, represented as a percentage of cells positively stained by IHC with antibodies against γ-H2AX or caspase 3 (cleaved).
FIG. 70. Representative IHC images of caspase 3 (cleaved) in tumors at the end of therapeutic regimens. Biopsies of placebo-treated animals served as negative controls for drug-treated mice. Scale bar, 100 μm.
Considering the primary in vivo expressive results with MIT and/or PDK4-IN treatment, the inventors next asked how pharmacologically targeting PDK4 could enhance the therapeutic response of tumors. To disclose the possible mechanism(s), the inventors chose to dissect tumors from animals 7 days after initiation of treatment, a timepoint right before the development of resistant colonies.

HTR2B = target: T1, HTR2B (Homo sapiens, UniProt P41595); test: Malignant phenotype of HTR2B-transduced PCa lines with HTR2B antagonist; assay type: cell-based; settings: PCa lines PC3, DU145, M12; antagonist applied under culture conditions
T1 construct: expressed in transfected cells; host or cells: PCa cell lines (PC3, DU145, M12)
Source text: FIG. 59. Left, appraisal of the proliferation capacity of PCa lines under different conditions. As the experimental group, human HTR2B was transduced into each PCa cell line, and LY 266097 was used in the culture medium as a control for drug treatment. Middle, measurement of the migration ability of PCa lines under different conditions, with cells treated similarly as described above. Right, measurement of the migration ability of PCa lines under different conditions, with cells treated similarly as described above.
as §1
More importantly, the transduction of HTR2B enhanced resistance of PCa cells to mitoxantrone (MIT). […]

[4] = test system: MDA-MB-231 breast cancer cells xenografted together with HBF1203 breast stromal cells; test: MDA-MB-231/HBF1203 xenograft, tumor end volume after chemotherapy and/or PDK4-IN; assay type: in vivo, SCID mice; settings: DTX 1.0 mg/kg with PDK4-IN; FIG. 73
Experimental: All experimental mouse experiments were carried out in strict accordance with the relevant regulations of the Institutional Animal Care and Use Committee (IACUC), Shanghai Institutes for Biological Sciences, Chinese Academy of Sciences. Immuno-deficient mice ICR SCID mice (body weight about 25 g) aged about 6 weeks were used for animal experiments related to the present disclosure. Stromal cells PSC27 and epithelial cells were mixed at a ratio of 1:4, and each graft contained 1.25×10^6 cells for tissue remodeling. The xenograft tumors were implanted into mice by subcutaneous transplantation, and the animals were euthanized 8 weeks after the end of the transplantation surgery. Tumor volume was calculated according to the following formula: V=(π/6)×(([…])/2)^3 (V, volume; 1, length; w, width).
For pre-clinical chemotherapeutic studies, mice received subcutaneous implantation were given standard laboratory diets. […] The time points were on the first day of the third, fifth and seventh weeks, with a total of 3 cycles of treatment, and each cycle lasted for 2 weeks. After the course of treatment, mouse […] were collected for tumor measurement and histological analysis. […] In order to cause systemic expression of SASP factors induced by chemotherapy, MIT was administered to mice through intravenous infusion according to the above steps and sequence, but the dose was reduced to 0.1 mg/kg body weight/each time (the cumulative dose of MIT received in the whole course of treatment was 0.3 mg/kg body weight) to reduce drug-related toxicity. The chemotherapy experiment ended at the end of the 8th week, and the mice were dissected immediately after sacrifice, and the xenograft tumors were collected and used for pathological system analysis.
To assess the in vivo effects of chemotherapeutic drugs and/or PDK4-IN treatment in different tumor types, the inventors subsequently generated xenografts composed of breast cancer cell line MDA-MB-231 and breast stromal cell line HBF1203 to replicate the preclinical intervention observed in prostate cancer xenografts.

T1 sequence (P41595 whole entry): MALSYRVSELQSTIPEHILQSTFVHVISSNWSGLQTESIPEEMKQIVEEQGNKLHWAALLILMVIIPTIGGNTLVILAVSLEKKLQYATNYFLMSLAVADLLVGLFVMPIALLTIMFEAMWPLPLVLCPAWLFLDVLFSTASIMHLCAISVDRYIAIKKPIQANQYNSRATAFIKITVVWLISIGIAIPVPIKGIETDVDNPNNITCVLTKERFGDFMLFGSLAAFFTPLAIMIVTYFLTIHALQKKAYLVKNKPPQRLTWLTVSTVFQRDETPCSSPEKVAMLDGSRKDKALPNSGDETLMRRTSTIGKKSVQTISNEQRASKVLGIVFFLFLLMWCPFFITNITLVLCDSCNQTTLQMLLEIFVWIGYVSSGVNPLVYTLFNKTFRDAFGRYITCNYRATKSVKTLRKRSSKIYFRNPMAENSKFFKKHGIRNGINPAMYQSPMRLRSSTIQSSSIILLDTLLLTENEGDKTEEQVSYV

Q: O=C1c2c(O)ccc(O)c2C(=O)c2c(NCCNCCO)ccc(NCCNCCO)c21 [MIT, mitoxantrone] was tested. Which “tumor shrinkage (tumor volume reduction)” value [1] did it give?
A: 57.5%

Q: And the “survival curve of cancer cells under genotoxic stress” value (PC3)?
A: declined trend

Q: What about the “SA-β-gal positivity in tumor tissues” value [2] of the same molecule?
A: elevated SA-β-gal positivity

Q: What about the “caspase 3 cleavage (IHC)” value ([3]; MIT administration alone) of the same molecule?
A: increased caspase 3 cleavage

Q: What about the “DNA damage and apoptosis in cancer cells” value ([3]; tumors dissected 7 days after initiation of treatment, single agent) of the same molecule?
A: caused substantial DNA damage and apoptosis

Q: For COc1ccc(CC2NCCc3c2[nH]c2ccc(C)cc32)c(Cl)c1OC.Cl (stereo not shown) [LY 266097], which “HTR2B-conferred gain of proliferation, migration, invasion and resistance to MIT” value (HTR2B) is on record?
A: generally lost

Q: Which “tumor regression by combination with PDK4-IN (non-genotoxic drug)” value [4] does the source give for CC(=O)O[C@@]12CO[C@@H]1C[C@H](O)[C@@]1(C)C(=O)[C@H](O)C3=C(C)[C@@H](OC(=O)[C@H](O)[C@@H](NC(=O)OC(C)(C)C)c4ccccc4)C[C@@](O)([C@@H](OC(=O)c4ccccc4)[C@H]21)C3(C)C [docetaxel (DTX), docetaxel] here?
A: unable to replicate the effects

Source: US20260137671A1, “PDK4 as a Cell-Aging Intervention Target and Its Use in Chemotherapy and Anticancer” (Shanghai Institute of Nutrition and Health, Chinese Academy …, priority 2022, published 2026)
